Data as given in PMC6005341, “Identification of “sarsasapogenin-aglyconed” timosaponins as novel Aβ-lowering modulators of amyloid precursor protein processing” (Chemical Science, 2016).
Like-named read-outs stand apart in the source and are kept apart here.

Experiments:
[1] = system: Aβ42 production in N2A-APPswe cells; assay: Aβ42 in conditioned medium of N2A-APPswe cells by ELISA, 18 h treatment; format: cell-based; details: for IC50: mean ± standard deviation, n ≥ 3
Description: Sigma-Aldrich Chemical Co. unless otherwise specified. SSG (1) was purchased from Wako Pure Chemical Industries, Ltd. Diosgenin (6), Dioscin (9), Polyphyllin D (10), Timosaponin BI (22) and Timosaponin BII (23) were purchased from Chengdu Must Bio-Technology Co.
Ltd. Yamogenin (7) was bought from Ambinter c/o Greenpharma while Smilagenin (24) was bought from Steraloids Inc. Substances dissolved in DMSO as stock solutions. Cell culture medium constituents were purchased from Life Technologies, Inc.
Cell culture: Neuro-2A cells expressing Swedish mutants of APP (N2A-APPswe provided by Prof. Yifan Han, The Hong Kong Polytechnic University)1 was cultured in minimal essential medium with 2 mM glutamine, 2 mM pyruvate and 10% fetal bovine serum. […]
(§1) Aβ ELISA: Aβ concentrations in conditioned medium were assayed using ELISA kits for […]

[2] = system: Aβ40 and Aβ38 in N2A-APPswe cells; assay: Aβ40 and Aβ38 in conditioned medium of N2A-APPswe cells by ELISA; format: cell-based; details: compared with Aβ42
Protocol: as §1

Neuro-2A cells = assay: Neurite outgrowth, type III β-tubulin immunostaining; format: cell-based; details: at concentrations that lower Aβ production, 18 h
Protocol: Immunofluorescence examination of neurite outgrowth: Neuro-2A cells were seeded at 1×105 per glass bottom dishes. After treatment, cells were fixed with 4% paraformaldyde for 10 min, permeabilized with 0.1% Triton X-100, and then blocked with 1% BSA in PBS.
The cells were incubated with monoclonal antibody raised against type III β-tubulin (Sigma) for 1 h followed by Alexa488 conjugated secondary antibody. Neurite morphology was examined under fluorescence microscope. […]

[3] = system: brain Aβ / amyloid in APPswe transgene; details: oral 25 mg/kg for 18 h, ref FASEB J. (2006) 20: E599; cited from earlier work
[4] = N2a-APPswe, read-out: IC50 in lowering Aβ42 production, N2A-APPswe cells
[5] = N2A-APPswe cells, read-out: IC50 in lowering Aβ42 production

| SMILES | Aβ42-lowering effect (in words) ([1]; N2A-APPswe cells) | IC50 [1, 4] [µM] | also measured |
| --- | --- | --- | --- |
| C[C@H]1CC[C@@]2(OC1)O[C@H]1C[C@H]3[C@@H]4CC[C@@H]5C[C@@H](O[C@@H]6O[C@H](CO)[C@@H](O)[C@H](O)[C@H]6O)CC[C@]5(C)[C@H]4CC[C@]3(C)[C@H]1[C@@H]2C [AA (5), Asparagoside A] | effectively lowered | ~6 | effect on Aβ40 and Aβ38 [2]: much smaller effect |
| C[C@@H]1CC[C@@]2(OC1)O[C@H]1C[C@H]3[C@@H]4CC=C5C[C@@H](O)CC[C@]5(C)[C@H]4CC[C@]3(C)[C@H]1[C@@H]2C [Diosgenin (6), diosgenin] | no effect | – | IC50 [1, 5]: > 100 µM; neurite outgrowth (Neuro-2A cells): not shared |
| COC1OC(CNC(=O)COC2CCC3(C)C(CCC4C3CCC3(C)C4CC4OC5(CCC(C)CO5)C(C)C43)C2)C(O)C(O)C1O (stereo not drawn) [α-OMe SSG (32), α-OMe SSG] | – | 7.2 ± 2.2 | – |
| C[C@@H]1CC[C@@]2(OC1)O[C@H]1C[C@H]3[C@@H]4CC[C@H]5C[C@@H](O[C@@H]6O[C@H](CO)[C@@H](O[C@@H]7O[C@@H](C)[C@H](O)[C@@H](O)[C@H]7O)[C@H](O)[C@H]6O[C@@H]6O[C@@H](C)[C@H](O)[C@@H](O)[C@H]6O)CC[C@]5(C)[C@H]4CC[C@]3(C)[C@H]1[C@@H]2C [Compound 11, dihydrodioscin] | insignificant Aβ42-lowering effects | – | – |
| COC1OC(Cn2cc(COC3CCC4(C)C(CCC5C4CCC4(C)C5CC5OC6(CCC(C)CO6)C(C)C54)C3)nn2)C(O)C(O)C1O (stereo not drawn) [α-OMe triazole SSG (28), α-OMe triazole SSG] | – | 6.5 ± 2.1 | – |
| C[C@H]1CC[C@@]2(OC1)O[C@H]1C[C@H]3[C@@H]4CC[C@H]5C[C@@H](O)CC[C@]5(C)[C@H]4CC[C@]3(C)[C@H]1[C@@H]2C [Neotigogenin (14), neotigogenin] | ineffective | > 100 | neurite outgrowth (Neuro-2A cells): not shared |
| CC(C)=CCC[C@](C)(O)[C@H]1CC[C@]2(C)[C@@H]1[C@H](O)C[C@@H]1[C@@]3(C)CC[C@H](O[C@@H]4O[C@H](CO)[C@@H](O)[C@H](O)[C@H]4O[C@@H]4O[C@H](CO)[C@@H](O)[C@H](O)[C@H]4O)C(C)(C)[C@@H]3CC[C@]12C [Rg3] | – | – | Brain Aβ1-42 reduced by [3]: 30% |
| C[C@H]1CC[C@@]2(OC1)O[C@H]1C[C@H]3[C@@H]4CC[C@@H]5CC(=O)CC[C@]5(C)[C@H]4CC[C@]3(C)[C@H]1[C@@H]2C [Sarsasapogenone (19), sarsasapogenone] | comparable effect to 1 | 50 ± 5 | – |
| CO[C@]1(CC[C@H](C)CO[C@@H]2O[C@H](CO)[C@@H](O)[C@H](O)[C@H]2O)O[C@H]2C[C@H]3[C@@H]4CC[C@@H]5C[C@@H](O[C@@H]6O[C@H](CO)[C@H](O)[C@H](O)[C@H]6O[C@@H]6O[C@H](CO)[C@@H](O)[C@H](O)[C@H]6O)CC[C@]5(C)[C@H]4CC[C@]3(C)[C@H]2[C@@H]1C [Timosaponin B I (22), Timosaponin B I] | ineffective | > 100 | – |
| C[C@@H]1CC[C@@]2(OC1)O[C@H]1C[C@H]3[C@@H]4C[C@H](O)[C@H]5C[C@@H](O)CC[C@]5(C)[C@H]4CC[C@]3(C)[C@H]1[C@@H]2C [5α-H, 6α-OH diosgenin (15), 5α-H, 6α-OH diosgenin] | – | > 100 | – |
| C[C@@H]1CC[C@@]2(OC1)O[C@H]1C[C@H]3[C@@H]4C[C@@H](O)[C@@H]5C[C@@H](O)CC[C@]5(C)[C@H]4CC[C@]3(C)[C@H]1[C@@H]2C [5β-H, 6β-OH diosgenin (16), 5β-H, 6β-OH diosgenin] | ineffective | > 100 | – |
| CC(C)[C@@H](C)/C=C/[C@@H](C)[C@H]1CC[C@H]2C3=CC=C4C[C@@H](O)CC[C@]4(C)[C@H]3CC[C@]12C [Ergosterol, reference compound] | – | – | IC50 [1, 5]: > 100 µM |
| C[C@H]1CC[C@@]2(OC1)O[C@H]1C[C@H]3[C@@H]4CC=C5C[C@@H](O)CC[C@]5(C)[C@H]4CC[C@]3(C)[C@H]1[C@@H]2C [Yamogenin (7), yamogenin] | no effect | – | IC50 [1, 5]: > 100 µM; neurite outgrowth (Neuro-2A cells): not shared |
| COC1OC(CNC(=O)COC2CCC3(C)C(CCC4C3CCC3(C)C4CC4OC5(CCC(C)CO5)C(C)C43)C2)C(O)C(O)C1O (stereo not drawn) [β-OMe SSG (33), β-OMe SSG] | – | – | IC50 ([1]; read-out: IC50 in lowering Aβ42 production, N2A-APPswe cells): 9.3 ± 3.5 µM |
| C[C@@H]1CC[C@@]2(OC1)O[C@H]1C[C@H]3[C@@H]4CC[C@H]5C[C@@H](O)CC[C@]5(C)[C@H]4CC[C@]3(C)[C@H]1[C@@H]2C [Tigogenin (13), tigogenin] | ineffective | > 100 | neurite outgrowth (Neuro-2A cells): not shared |
| C[C@@H]1CC[C@@]2(OC1)O[C@H]1C[C@H]3[C@@H]4CC[C@@H]5C[C@@H](O)CC[C@]5(C)[C@H]4CC[C@]3(C)[C@H]1[C@@H]2C [Smilagenin (24), smilagenin] | ineffective | > 100 | neurite outgrowth (Neuro-2A cells): not shared |
| CC1CCC2(OC1)OC1CC3C4CCC5CC(OCC(=O)O)CCC5(C)C4CCC3(C)C1C2C (stereo not shown) [Ethereal SSG (29), ethereal SSG] | – | 27 ± 8 | – |
| C[C@@H]1CC[C@@]2(OC1)O[C@H]1C[C@H]3[C@@H]4CC=C5C[C@@H](O[C@@H]6O[C@H](CO)[C@@H](O[C@@H]7O[C@@H](C)[C@H](O)[C@@H](O)[C@H]7O)[C@H](O)[C@H]6O[C@@H]6O[C@@H](C)[C@H](O)[C@@H](O)[C@H]6O)CC[C@]5(C)[C@H]4CC[C@]3(C)[C@H]1[C@@H]2C [Compound 9, dioscin] | insignificant Aβ42-lowering effects | – | – |
| C[C@H]1CC[C@@]2(OC1)O[C@H]1C[C@H]3[C@@H]4CC[C@@H]5C[C@@H](O[C@@H]6O[C@H](CO)[C@H](O[C@@H]7O[C@H](CO)[C@@H](O)[C@H](O)[C@H]7O)[C@H](O)[C@H]6O[C@@H]6O[C@H](CO)[C@@H](O)[C@H](O)[C@H]6O)CC[C@]5(C)[C@H]4CC[C@]3(C)[C@H]1[C@@H]2C [TAV (4), timosaponin A V] | effectively lowered | ~4.2 | effect on Aβ40 and Aβ38 [2]: much smaller effect |
| C[C@@H]1CC[C@@]2(OC1)O[C@H]1C[C@H]3[C@@H]4CC=C5C[C@@H](O[C@@H]6O[C@H](CO)[C@H](O)[C@H](O)[C@H]6O)CC[C@]5(C)[C@H]4CC[C@]3(C)[C@H]1[C@@H]2C [Capsicoside A3 (8), capsicoside A3] | – | – | IC50 [1, 5]: > 100 µM |
| C[C@H]1CC[C@@]2(OC1)O[C@H]1C[C@H]3[C@@H]4CC[C@@H]5C[C@H](O)CC[C@]5(C)[C@H]4CC[C@]3(C)[C@H]1[C@@H]2C [Episarsasapogenin (20), episarsasapogenin] | inactive | > 100 | neurite outgrowth (Neuro-2A cells): not shared |
| C[C@H](CO)CC[C@H]1O[C@H]2C[C@H]3[C@@H]4CC[C@@H]5C[C@@H](O)CC[C@]5(C)[C@H]4CC[C@]3(C)[C@H]2[C@@H]1C [Dihydrosarsasapogenin (21), dihydrosarsasapogenin] | – | > 100 | – |
| C[C@H]1CC[C@@]2(OC1)O[C@H]1C[C@H]3[C@@H]4C[C@H](O)[C@H]5C[C@@H](O)CC[C@]5(C)[C@H]4CC[C@]3(C)[C@H]1[C@@H]2C [5α-H, 6α-OH yamogenin (17), 5α-H, 6α-OH yamogenin] | – | > 100 | – |
| C[C@H]1CC[C@@]2(OC1)O[C@H]1C[C@H]3[C@@H]4C[C@@H](O)[C@@H]5C[C@@H](O)CC[C@]5(C)[C@H]4CC[C@]3(C)[C@H]1[C@@H]2C [5β-H, 6β-OH yamogenin (18), 5β-H, 6β-OH yamogenin] | – | 45 ± 4 | – |
